From patent US12338261B2 (SUMITOMO PHARMA ONCOLOGY, INC., priority 2015, dated 2025)
Like-named read-outs stand apart in the source and are kept apart here.

Assays:
[1] = Description: Repeat dose toxicology studies were performed in female SHO SCID mice using 3 animals per treatment group. […] Body weight measurements of animals treated by oral (see FIGS. 3A-B) and intravenous (see FIG. 3C-D) dosing over the course of the 5-day repeat dosing period and subsequent 5-day observation period, along with mortality and clinical observations, were used to determine the maximum tolerated dosing schedule (MTDrepeat).
[2] = physchem; settings: kinetic from dmso stock
[3] = assay type: in vitro ADME, rat; settings: rat, plasma
Description: (§1) The plasma stability of compound IB′ was determined using plasma from four species. Results for mouse, rat, dog and human are shown in Tables 5, 6, 7 and 8 respectively. Alvocidib and flumazenil were used as controls. In mouse, rat and human plasma, compound IB′ maintained 100% stability after 5 hour incubation. In dog plasma, approximately 90% of compound IB′ remained after 5 hours.

[4] = test system: MV4-11 mouse xenograft model of acute myeloid leukemia (AML); test: Mouse xenograft efficacy study; assay type: in vivo; settings: MV4-11 xenograft
Description: The in vivo activity of compound IB′ was determined in a MV4-11 mouse xenograft model of acute myeloid leukemia (AML). Injection of 8×10^6 MV4-11 cells/mouse was followed by growth of tumors to approximately 100 mm^3. After tumors reached the appropriate size, mice were randomized into the following treatment groups: Vehicle, compound IB′ (7.5 mg/kg, qdx5x3), compound IB′ (2.5 mg/kg, qdx5x3), compound IB′ (0.1 mg/kg, qdx5x3) and […]. Vehicle and compound IB′ were administered orally, except in the last arm of compound IB′ (7.5 mg/kg, q7dx3), which was dosed intravenously.

[5] = assay type: in vitro ADME, mouse; settings: mouse, plasma
Description: as §1

[6] = for MTDacute: female SHO SCID mice; for Body weight loss, peak: surviving mice
Description: Acute studies were performed in female SHO SCID mice using three animals per treatment group. […] Body weight measurements following oral dosing (FIGS. 2A-B) and intravenous (IV) dosing (FIG. 2C-D) were used, along with mortality and clinical observations to determine the maximum tolerated acute dose (MTDacute).

[7] = Dog plasma stability; assay type: in vitro ADME; settings: dog plasma
Description: as §1

[8] = Pharmacokinetics in Sprague Dawley rats; assay type: in vivo, rat; settings: SD rats; for concentration at 0.5 h: 0.50 hr
Description: Plasma samples were taken at 8 time-points (IV) or 7 time points (oral) over a 24 hour period following a single dose of compound IB′ (3 animals per group). […] The plasma samples were also analyzed for the presence of compound IB′.

[9] = Maximum tolerated acute dose in rats
Description: Acute (i.e. single dose) toxicology studies were performed in rats. Acute studies were performed in female Sprague Dawley rats using three animals per treatment group. […] Body weight measurements following oral dosing (see FIG. 4A), along with mortality, clinical observations, food consumption (see FIG. 4B), and complete blood counts (CBCs; see Table 12) were used to determine the maximum tolerated acute dose (MTDacute).

[10] = test system: MCL-1 protein expression; test: Mouse xenograft pharmacodynamic study; assay type: in vivo; settings: MV4-11 xenograft tumors, 48 hours post-treatment
Description: The in vivo pharmacodynamic activity of compound IB′ was determined in a MV4-11 mouse xenograft model of AML (FIG. 6A-B). Injection of 8×10^6 cells/mouse was followed by growth of tumors to approximately 100 mm^3. After tumors reached an appropriate size, mice were randomized into the following treatment groups: Vehicle, compound IB′ (2.5 mg/kg), compound IB′ (0.5 mg/kg), compound IB′ (0.1 mg/kg), compound IB′ (0.02 mg/kg). Mice were administered a single treatment dose and tumors were harvested 48 hours post-treatment. MCL-1 protein levels were assessed on harvested tumors using standard polyacrylamide gel electrophoresis and immunoblotting technique (FIG. 6A).

[11] = male, Sprague Dawley, rat, plasma, IV 1 mg/kg, read-out: Plasma concentration of compound IB′ itself
[12] = male, Sprague Dawley, rat, plasma, PO 10 mg/kg, read-out: Plasma concentration of compound IB′ itself
[13] = rats, single oral dose 4.5 mg/kg
[14] = rats, single oral dose 18 mg/kg

For `CN1CC[C@H](c2c(OP(=O)(O)O)cc(O)c3c(=O)cc(-c4ccccc4Cl)oc23)[C@H](O)C1` [Compound IB′, 2-(2-chlorophenyl)-5-hydroxy-8-(3-hydroxy-1-methylpiperidin-4-yl)-4-oxo-4H-chromen-7-yl dihydrogen phosphate], the MTDrepeat ([1]; female SHO SCID mice, five daily doses, dosed intravenously) was 15 mg/kg, the overt toxicity ([1]; mice, five daily doses, orally 7.5 or 2.5 mg/kg, or any dose level intravenously) was “No overt toxicity was observed” and the mortality ([1]; mice, five daily oral doses 15 mg/kg) was “one animal died on day 5, and one animal died on day 7”. For the same molecule, the “Body weight loss, peak” value ([1]; surviving mice, five daily oral doses 15 mg/kg) was 12%, the solubility kinetic ([2]; pH 2.2, aqueous buffer) was > 1000 µg/mL and the solubility ([2]; pH 2.2, aqueous buffer, Solubility) was 1900 µg/mL. For the same molecule, the solubility kinetic ([2]; pH 6.8, aqueous buffer) was > 5000 µg/mL, the solubility kinetic ([2]; pH 8.7, aqueous buffer) was > 5000 µg/mL and the “% Remaining” value ([3]; 0 h) was 100.00%. The “% Remaining” value ([3]; 0.5 h) was 97.39%, the “% Remaining” value ([3]; 1 h) was 94.60% and the “% Remaining” value ([3]; 2 h) was 100.04%. For the same molecule, the “% Remaining” value ([3]; 3 h) was 107.48%, the “% Remaining” value ([3]; 4 h) was 100.20% and the “Tumor Growth Inhibition” value ([4]; 2.5 mg/kg, qdx5x3, orally) was 12%. The “Tumor Growth Inhibition” value ([4]; 7.5 mg/kg, q7dx3, intravenously) was 74%, the “Tumor Growth Inhibition” value ([4]; 7.5 mg/kg, qdx5x3, orally) was 69% and the “% Remaining” value ([5]; 0 h) was 100.00%. The “% Remaining” value ([5]; 0.5 h) was 88.48%, the “% Remaining” value ([5]; 1 h) was 89.83% and the “% Remaining” value ([5]; 2 h) was 97.71%. For the same molecule, the “% Remaining” value ([5]; 3 h) was 99.61%, the “% Remaining” value ([5]; 4 h) was 100.46% and the MTDacute ([6]; single dose, dosed intravenously) was 15 mg/kg. For the same molecule, the MTDacute ([6]; single dose, dosed orally) was 15 mg/kg, the “Minor body weight loss, peak” value ([6]; mice, 15 mg/kg intravenous dosing group, single dose) was 3.3% and the clinical observations ([6]; mice, single dose 30 mg/kg and 45 mg/kg) was “Body weight loss and increased lethargy were observed”. For the same molecule, the overt toxicity ([6]; mice, single dose orally or intravenously at 15 mg/kg or 7.5 mg/kg) was “No overt toxicity was observed”, the mortality ([6]; mice, single intravenous dose 30 mg/kg) was “one animal died on day three” and the mortality ([6]; mice, single intravenous dose 45 mg/kg) was “two animals died on day two”. For the same molecule, the mortality ([6]; mice, single oral dose 30 mg/kg) was “one animal died on day four”, the mortality ([6]; mice, single oral dose 45 mg/kg) was “one animal died on day two and one animal died on day three” and the “Body weight loss, peak” value ([6]; single dose intravenously) was 12%. The “Body weight loss, peak” value ([6]; single oral dose, 30 mg/kg group) was 17%, the “% Remaining” value ([7]; 0 hours) was 100.00% and the “% Remaining” value ([7]; 0.5 hours) was 83.66%. The “% Remaining” value ([7]; 1 hour) was 94.53%, the “% Remaining” value ([7]; 2 hours) was 112.61% and the “% Remaining” value ([7]; 3 hours) was 99.16%. For the same molecule, the “% Remaining” value ([7]; 4 hours) was 93.91%, the “Plasma concentration of compound IB′ itself” value (“Plasma concentration” for short) ([8]; IV 1 mg/kg, 2.00 hr, 1 mg/kg) was “below quantitative levels and BQL” and the “Plasma concentration” value ([8]; IV 1 mg/kg, 4.00 hr) was “BQL”. The “Plasma concentration” value ([8]; IV 1 mg/kg, 6.00 hr) was “BQL”, the “Plasma concentration” value ([8]; IV 1 mg/kg, 8.00 hr) was “BQL” and the “Plasma concentration” value ([8]; IV 1 mg/kg, 24.00 hr) was “BQL”. For the same molecule, the “Plasma concentration” value ([8]; PO 10 mg/kg, 2.00 hr, 10 mg/kg) was “below quantitative levels and BQL”, the “Plasma concentration” value ([8]; PO 10 mg/kg, 4.00 hr) was “BQL” and the “Plasma concentration” value ([8]; PO 10 mg/kg, 6.00 hr) was “BQL”. For the same molecule, the “Plasma concentration” value ([8]; PO 10 mg/kg, 8.00 hr) was “BQL”, the “Plasma concentration” value ([8]; PO 10 mg/kg, 24.00 hr) was “BQL” and the concentration at 0.083 h ([8]; male, Sprague Dawley, rat, plasma, IV 1 mg/kg, 0.083 hr, read-out: Plasma concentration of compound IB′ itself) was 430 ng/mL. The concentration at 0.25 h [8, 11] was 82 ng/mL, the concentration at 0.5 h [8, 11] was 24.6 ng/mL and the concentration at 1 h [8, 11] was 9.3 ng/mL. It also gave a concentration at 0.25 h [8, 12] of 30 ng/mL, a concentration at 0.5 h [8, 12] of 20.4 ng/mL and a concentration at 1 h [8, 12] of 9.3 ng/mL. It also gave an MTDacute ([9]; female Sprague Dawley rats, single oral dose) of 18 mg/kg, an NOAEL ([9]; female, Sprague Dawley, rat, in vivo, po) of 18 mg/kg and an HCT [9, 13] of 49.9%. The MCH [9, 13] was 19.7 pg, the MCHC [9, 13] was 35.9 g/dL and the MCV [9, 13] was 54.8 fL. The PLT [9, 13] was 37.1 10^3/μL, the RBC [9, 13] was 9.1 10^6/μL and the RDWA [9, 13] was 16.2 fL. For the same molecule, the WBC [9, 13] was 17.9 10^3/μL, the HCT ([9]; rats, single oral dose 9 mg/kg) was 42.7% and the MCH ([9]; rats, single oral dose 9 mg/kg) was 19.5 pg. For the same molecule, the MCHC ([9]; rats, single oral dose 9 mg/kg) was 36.6 g/dL, the MCV ([9]; rats, single oral dose 9 mg/kg) was 53.3 fL and the PLT ([9]; rats, single oral dose 9 mg/kg) was 35.0 10^3/μL. The RBC ([9]; rats, single oral dose 9 mg/kg) was 8.0 10^6/μL, the RDWA ([9]; rats, single oral dose 9 mg/kg) was 15.9 fL and the WBC ([9]; rats, single oral dose 9 mg/kg) was 15.6 10^3/μL. For the same molecule, the “platelet counts versus normal range” value ([9]; rats, single oral dose 9 mg/kg) was “outside the normal range”, the HCT [9, 14] was 31.2% and the MCH [9, 14] was 19.6 pg. For the same molecule, the MCHC [9, 14] was 36.6 g/dL, the MCV [9, 14] was 53.5 fL and the PLT [9, 14] was 33.9 10^3/μL. For the same molecule, the RBC [9, 14] was 5.9 10^6/μL, the RDWA [9, 14] was 15.7 fL and the WBC [9, 14] was 11.4 10^3/μL. For the same molecule, the “abnormal food consumption patterns” value [9, 14] was “not observed”, the “red and white blood cell counts” value [9, 14] was “Slightly reduced” and the Body weight loss ([9]; rats, single oral dose 36 mg/kg, preceding death) was 13.1%. The overt toxicity ([9]; rats, single oral dose 18, 9, or 4.5 mg/kg) was “No overt toxicity, including body weight change or diarrhea, was observed”, the “Reduction of MCL-1 Expression” value ([10]; single dose 0.02 mg/kg) was 0.0% and the “Reduction of MCL-1 Expression” value ([10]; single dose 0.1 mg/kg) was 46%. For the same molecule, the “Reduction of MCL-1 Expression” value ([10]; single dose 0.5 mg/kg) was 61% and the “Reduction of MCL-1 Expression” value ([10]; single dose 2.5 mg/kg) was 54%.
